# Assay results from patent publication US20220282271A1, “HERBICIDE RESISTANT PLANTS AND METHODS OF MAKING AND USING” (OFFICE OF INNOVATION ADVANCEMENT AND COMMERCIALIZATION, priority 2019, published 2022).
# Tested on: Eleusine indica biotypes (S, R1, R2)
# Experiment: Herbicide rate screening assay (greenhouse, foliar-applied, visual injury)
# Format: in vivo
# Conditions: for I50, estimated rate required to reduce Eleusine indica biotype by 50% (Visual Control/Injury) / I90, estimated rate required to reduce Eleusine indica biotype by 90% (Visual Control/Injury): injury scores 14 days after treatment; for Parameter estimate a of sigmoidal model y = a/(1 + exp(−(x − x0)/b)) for percent injury / Parameter estimate b of sigmoidal model y = a/(1 + exp(−(x − x0)/b)) for percent injury / Parameter estimate x0 of sigmoidal model y = a/(1 + exp(−(x − x0)/b)) for percent injury: x = log-transformed herbicide rate (kg/ha), 14 DAT; for Control at labelled rate application: oxadiazon 2.24 kg/ha
# Description: Three E. indica biotypes from different locations were used in this study. The R1 biotype was collected in Country Club of Virginia, Richmond, Va., and the R2 biotype was from River Bend Golf, New Bern, N.C. These two biotypes were previous confirmed resistant to preemergence application of oxadiazon, but have not been screened to other PPO inhibitors. The S biotype was collected from the Alabama Agricultural Experiment Station, Plant Breeding Unit, Tallassee, Ala., which was confirmed susceptible to PPO inhibitors. Seeds of the mature plants were harvested, air dried and stored in the 4° C. freezer until planted in the greenhouse.
# Greenhouse conditions were 30±3° C. at day/night temperature and ˜70% average relative humidity. The E. indica seeds were placed on the soil surface and lightly covered with sand in 28 cm*20 cm flats and watered as needed daily to ensure germination. Two weeks after emergence, seedlings were separated and transplanted to in individual 10-cm pots (volumes=0.5 L). Pots were filled with surface horizon of Marvyn sandy loam (fine-loamy, kaolinitic, thermic Typic Kanhapludults) soil with pH 6.4 and 1.2% organic matter. The plants were irrigated three times daily for 2 min with overhead irrigation and fertilized once at one week after transplanting at approximately 50 kg N ha^−1 with Scott's Miracle-Gro All-Purpose fertilizer (The Scotts Miracle-Gro Co. Marysville, Ohio). Plants were 5-10 cm in height with 3-5 tillers in size at the time of herbicide treatment.
# Herbicide treatments were foliar-applied at 280 L/ha using an enclosed spray chamber with a single 8002E nozzle (TeeJet Spray Systems Co, Wheaton, Ill.) at 32 PSI. Four herbicides were selected for the experiment: oxadiazon (Ronstar FLO, Bayer Environmental Sci., Research Triangle Park, N.C.), sulfentrazone (Dismiss, FMC Corporation, Philadelphia, Pa.), flumioxazin (Sureguard, Valent Corp., Walnut Creek, Calif.) and lactofen (Cobra, Valent Corp., Walnut Creek, Calif.). All the herbicides are from different herbicide chemical families of PPO inhibitors: oxadiazoles, triazolinone, N-phenylphthalimide and diphenyl ether, respectively. Herbicides were applied at 7 different rates based on each herbicide label rate: oxadiazon ranging from 0.14 to 8.96 kg/ha, sulfentrazone from 0.07 to 4.50 kg/ha, flumioxazin from 0.08 to 5.70 kg/ha, and lactofen from 0.029 to 1.75 kg/ha. A non-treated control (0 kg/ha) was included. 192 plants of each biotype were tested and experiments were conducted as completely random design, three replications for two runs.
# The visual injury rating scores per plant at 14 days after treatment (DAT) were recorded, where the visual injury rating scores were based on a 0 to 100 scale, which 0 is equated to no phytotoxicity and 100 is equated to complete control. Data subjected to ANOVA analysis at a significance level of P<0.05 using the PROC GLM procedure of SAS 9.4 (SAS Institute Inc., Cary, N.C.). All the herbicide rates were log transformed to make equal spacing between the herbicide treatments in order to facilitate regression analysis. The non-treated control was transformed to equal spacing based on the log rates of each herbicide, respectively. Data were fitted to a sigmoidal model using SigmaPlot 10.2 (Systat Software Inc., London, UK) using a sigmoidal function (Equation 1).
# y=a/(1+e^(−((x−x0)/b))) (1)
# In this fit sigmoidal model, where y represents E. indica visual damage relative to non-treated control (%), x represents the log-transformed herbicide rates (kg/ha), three parameters (a, b, x0) represents the y intercept.
smiles,measurement,setting,value
"CC(C)Oc1cc(-n2nc(C(C)(C)C)oc2=O)c(Cl)cc1Cl [Oxadiazon, oxadiazon]",Increased resistance of oxadiazon resistant biotypes than the susceptible biotype,"R1 and R2 vs S biotype, post-emergence applied",up to 20 fold
same,"I50, estimated rate required to reduce Eleusine indica biotype by 50% (Visual Control/Injury)",R1 biotype,8.15 kg ha^−1
same,"I90, estimated rate required to reduce Eleusine indica biotype by 90% (Visual Control/Injury)",R1 biotype,14.60 kg ha^−1
same,Parameter estimate a of sigmoidal model y = a/(1 + exp(−(x − x0)/b)) for percent injury,R1 biotype,9925.40
same,Parameter estimate b of sigmoidal model y = a/(1 + exp(−(x − x0)/b)) for percent injury,R1 biotype,0.53
same,Parameter estimate x0 of sigmoidal model y = a/(1 + exp(−(x − x0)/b)) for percent injury,R1 biotype,3.75
same,"I50, estimated rate required to reduce Eleusine indica biotype by 50% (Visual Control/Injury)",R2 biotype,8.88 kg ha^−1
same,"I90, estimated rate required to reduce Eleusine indica biotype by 90% (Visual Control/Injury)",R2 biotype,18.29 kg ha^−1
same,Parameter estimate a of sigmoidal model y = a/(1 + exp(−(x − x0)/b)) for percent injury,R2 biotype,64371.40
same,Parameter estimate b of sigmoidal model y = a/(1 + exp(−(x − x0)/b)) for percent injury,R2 biotype,0.43
same,Parameter estimate x0 of sigmoidal model y = a/(1 + exp(−(x − x0)/b)) for percent injury,R2 biotype,3.99
same,"I50, estimated rate required to reduce Eleusine indica biotype by 50% (Visual Control/Injury)",S biotype,0.32 kg ha^−1
same,"I90, estimated rate required to reduce Eleusine indica biotype by 90% (Visual Control/Injury)",S biotype,1.56 kg ha^−1
same,Control at labelled rate application,S biotype,> 80%
same,Parameter estimate a of sigmoidal model y = a/(1 + exp(−(x − x0)/b)) for percent injury,S biotype,91.25
same,Parameter estimate b of sigmoidal model y = a/(1 + exp(−(x − x0)/b)) for percent injury,S biotype,0.25
same,Parameter estimate x0 of sigmoidal model y = a/(1 + exp(−(x − x0)/b)) for percent injury,S biotype,−0.54
same,Control at labelled rate application,"resistant biotypes (R1 and R2), flumioxazin 0.357 kg/ha, sulfentrazone 0.28 kg/ha, lactofen 0.22 kg/ha",< 20%
same,Control at labelled rate application,"resistant biotypes (R1 and R2), flumioxazin 0.357 kg/ha, sulfentrazone 0.28 kg/ha, lactofen 0.22 kg/ha, listed as oxadiazon",less than 10%
